Laboratory results published in article PMC8343220, “The selectivity of α‐adrenoceptor agonists for the human α1A, α1B, and α1D‐adrenoceptors” (Pharmacology Research & Perspectives, 2021).

How the values were obtained:
[1] = molecular target: T1, human α1D‐adrenoceptor (full length) (Homo sapiens, UniProt P25100); experiment: ERK1/2‐phosphorylation (Surefire Alphascreen), CHO‐α1D cells; format: cell-based; details: CHO‐α1D cells; for EC50: log values given negative, read-out: ERK1/2‐phosphorylation Log EC50 (converted); for ERK1/2‐phosphorylation % PDBu: maximal response as % of PDBu
T1 construct: human α1D‐adrenoceptor (full length) were used; expressed in transfected cells; host or cells: CHO-K1
T1 sequence (P25100 1-572): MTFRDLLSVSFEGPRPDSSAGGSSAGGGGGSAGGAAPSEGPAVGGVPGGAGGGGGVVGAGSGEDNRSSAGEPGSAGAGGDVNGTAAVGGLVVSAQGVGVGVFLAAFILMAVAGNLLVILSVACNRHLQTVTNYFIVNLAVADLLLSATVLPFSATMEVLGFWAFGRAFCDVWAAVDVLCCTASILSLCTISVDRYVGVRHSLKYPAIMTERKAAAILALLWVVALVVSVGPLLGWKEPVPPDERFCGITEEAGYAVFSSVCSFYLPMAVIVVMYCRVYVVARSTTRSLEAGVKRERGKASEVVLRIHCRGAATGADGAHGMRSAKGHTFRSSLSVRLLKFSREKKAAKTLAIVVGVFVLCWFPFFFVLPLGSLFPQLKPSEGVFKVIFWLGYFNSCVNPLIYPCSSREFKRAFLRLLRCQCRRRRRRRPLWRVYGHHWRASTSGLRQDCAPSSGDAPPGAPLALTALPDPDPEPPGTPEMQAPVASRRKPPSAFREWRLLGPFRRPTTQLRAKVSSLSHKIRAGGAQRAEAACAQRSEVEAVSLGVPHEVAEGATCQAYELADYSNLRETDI

[2] = molecular target: T2, human α1A‐adrenoceptor (Homo sapiens, UniProt P35348); experiment: ERK1/2‐phosphorylation (Surefire Alphascreen), CHO‐α1A cells; format: cell-based; details: CHO‐α1A cells, ^a bi‐phasic: initial stimulatory part; for EC50: 2–4 min, ^b also active in parent CHO cells, read-out: ERK1/2‐phosphorylation Log EC50 (converted); for ERK1/2‐phosphorylation % PDBu: % of 10 µM PDBu
T2 construct: expressed in transfected cells; host or cells: CHO-K1
T2 sequence (P35348 1-466): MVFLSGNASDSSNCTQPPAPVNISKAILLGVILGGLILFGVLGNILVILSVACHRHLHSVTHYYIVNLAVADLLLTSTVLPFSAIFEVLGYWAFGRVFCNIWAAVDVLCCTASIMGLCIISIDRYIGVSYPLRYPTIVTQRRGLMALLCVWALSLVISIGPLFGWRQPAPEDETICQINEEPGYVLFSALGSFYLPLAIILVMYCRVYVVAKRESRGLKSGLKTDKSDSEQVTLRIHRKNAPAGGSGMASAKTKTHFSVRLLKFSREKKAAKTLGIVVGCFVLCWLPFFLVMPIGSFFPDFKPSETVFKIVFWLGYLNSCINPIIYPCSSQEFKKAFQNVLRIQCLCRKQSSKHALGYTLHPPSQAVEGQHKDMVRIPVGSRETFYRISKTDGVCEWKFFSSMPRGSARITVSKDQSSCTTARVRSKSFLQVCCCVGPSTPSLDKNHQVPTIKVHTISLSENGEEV

[3] = molecular target: T2, human α1A‐adrenoceptor; experiment: Intracellular free calcium mobilization, CHO‐α1A cells; format: cell-based; details: CHO‐α1A cells; for Log efficacy ratio KD /EC50: binding KD and calcium EC50; for EC50: given as log EC50 (negative), read-out: Intracellular calcium release Log EC50 (converted); for Intracellular calcium release % ionomycin: maximal response as % of 10 µM ionomycin
[4] = molecular target: T3, human α1B‐adrenoceptor (Homo sapiens, UniProt P35368); experiment: ^3H‐cAMP accumulation in the presence of 10 μM forskolin, CHO‐α1B cells; format: cell-based; details: CHO‐α1B cells; for cAMP accumulation (in presence of forskolin) Fold increase: fold increase of the forskolin response; for EC50: in presence of forskolin, read-out: cAMP accumulation (in presence of forskolin) Log EC50 (converted)
T3 construct: expressed in transfected cells; host or cells: CHO-K1
T3 sequence (P35368 1-520): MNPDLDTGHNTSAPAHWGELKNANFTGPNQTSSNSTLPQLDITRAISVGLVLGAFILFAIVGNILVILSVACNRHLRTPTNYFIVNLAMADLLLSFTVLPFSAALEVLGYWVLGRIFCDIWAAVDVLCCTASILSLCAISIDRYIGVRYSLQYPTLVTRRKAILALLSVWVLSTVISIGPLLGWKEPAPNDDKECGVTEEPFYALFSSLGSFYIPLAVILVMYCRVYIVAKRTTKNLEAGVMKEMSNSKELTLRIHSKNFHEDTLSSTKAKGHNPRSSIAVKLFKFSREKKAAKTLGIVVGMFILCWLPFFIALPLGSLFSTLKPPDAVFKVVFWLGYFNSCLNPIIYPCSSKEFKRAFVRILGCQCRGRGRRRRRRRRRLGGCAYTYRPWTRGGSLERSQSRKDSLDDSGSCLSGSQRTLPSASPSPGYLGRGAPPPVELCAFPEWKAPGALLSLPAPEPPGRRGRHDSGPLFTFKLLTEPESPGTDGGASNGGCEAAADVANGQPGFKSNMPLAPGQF

[5] = molecular target: T3, human α1B‐adrenoceptor; experiment: Intracellular free calcium mobilization, CHO‐α1B cells; format: cell-based; details: CHO‐α1B cells; for EC50: given as log EC50 (negative numbers), read-out: Intracellular calcium release Log EC50 (converted); for Log efficacy ratio KD /EC50: intrinsic efficacy ratio, KD from binding / EC50 calcium; for Intracellular calcium release % ionomycin: maximal response as % of 10 µM ionomycin response
[6] = molecular target: T3, human α1B‐adrenoceptor; experiment: ERK1/2‐phosphorylation (Surefire Alphascreen), CHO‐α1B cells; format: cell-based; details: CHO‐α1B cells, for bi‐phasic responses the initial stimulatory part; for EC50: read-out: ERK1/2‐phosphorylation Log EC50 (converted); for ERK1/2‐phosphorylation % PDBu: maximal response as % PDBu response
[7] = molecular target: T3, human α1B‐adrenoceptor; experiment: ^3H‐cAMP accumulation, CHO‐α1B cells; format: cell-based; details: CHO‐α1B cells; for cAMP accumulation % forskolin: % forskolin maximum response; for EC50: read-out: cAMP accumulation Log EC50 (converted); for cAMP accumulation % forskolin at 100 µM: response at 100 µM ligand (no EC50 given)
[8] = molecular target: T1, human α1D‐adrenoceptor (full length); experiment: Intracellular free calcium mobilization, CHO‐α1D cells; format: cell-based; details: CHO‐α1D cells; for Log efficacy ratio KD /EC50: intrinsic efficacy ratio, binding KD / calcium EC50; for EC50: read-out: Intracellular calcium release Log EC50 (converted); for Intracellular calcium release % ionomycin: maximal response as % of 10 µM ionomycin
[9] = molecular target: T1, human α1D‐adrenoceptor (full length); experiment: ^3H‐prazosin whole‐cell radioligand binding, CHO‐α1D cells; details: for Kd: CHO‐α1D cells; for Affinity selectivity ratio α1B vs α1D: higher affinity for α1D than α1B
[10] = test system: parental CHO cell line without any transfected receptors; experiment: ERK1/2‐phosphorylation, parent CHO cells without transfected receptors; format: cell-based, Chinese hamster; details: for Emax at 100 µM: Cricetulus griseus, CHO, read-out: ERK1/2-phosphorylation % PDBu at 100μM; for ERK1/2-phosphorylation % PDBu / ERK1/2-phosphorylation Log EC50: CHO cells without transfected receptors, mean ± s.e.m.; for ERK1/2-phosphorylation % PDBu: maximal response as % of PDBu (10μM) response
[11] = test system: parental CHO cell line without any transfected receptors; experiment: Forskolin‐stimulated cAMP accumulation, parent CHO cells without transfected receptors; format: cell-based, Chinese hamster; details: CHO cells without transfected receptors
[12] = molecular target: T3, human α1B‐adrenoceptor; experiment: ^3H‐prazosin whole‐cell radioligand binding, CHO‐α1B cells; details: for Kd / IC50: CHO‐α1B cells; for IC50: printed as IC50> log value
[13] = molecular target: T1, human α1D‐adrenoceptor (full length); experiment: ^3H‐cAMP accumulation in the presence of 10 μM forskolin, CHO‐α1D cells; format: cell-based; details: CHO‐α1D cells; for cAMP (in presence of forskolin) Fold increase: fold increase of the forskolin response; for cAMP (in presence of forskolin) Log EC50 / EC50: log values given negative, in presence of forskolin
[14] = 3H‐prazosin binding Log KD, whole‐cell binding (from Table 1), log values given negative
[15] = Log KD α1D, ^3H‐prazosin whole cell binding, given as log KD (negative), mean ± SEM, 'early plateau' = specific binding not fully inhibited

Row | EC50 [1] | ERK1/2‐phosphorylation % PDBu [1] | EC50 [2] | ERK1/2‐phosphorylation % PDBu [2] | Log efficacy ratio KD /EC50 [3] | EC50 [3] | Intracellular calcium release % ionomycin [3] | cAMP accumulation (in presence of forskolin) Fold increase [4] | EC50 [4] | EC50 [5] | Log efficacy ratio KD /EC50 [5] | Intracellular calcium release % ionomycin [5] | EC50 [6] | ERK1/2‐phosphorylation % PDBu [6] | Log efficacy ratio KD /EC50 [8] | EC50 ([8]; log values given negative) | Intracellular calcium release % ionomycin [8] | Kd [9, 14] | Kd [9, 15] | cAMP (in presence of forskolin) Fold increase [13] | SMILES | also measured
1 | 13.8 µM | 33.0 ± 4.7% | 0.00407 µM | 90.9 ± 4.4% | 2.39 | 0.00117 µM | 50.9 ± 2.6% | 1.65 ± 0.07 fold | 0.0055 µM | 0.00933 µM | 2.29 | 38.9 ± 2.9% | 0.151 µM | 71.1 ± 7.2% | 1.24 | 0.117 µM | 11.8 ± 2.2% | 2.04 µM | 2.04 µM | No response | c1ccc2c(CC3=NCCN3)cccc2c1 [Naphazoline] | cAMP accumulation % forskolin [7]: 3.9 ± 0.7%; EC50 [7]: 0.0129 µM; Emax at 100 µM [10]: 9.2 ± 3.3%; cAMP accumulation (in presence of forskolin) Log EC50 [11]: No response; Kd ([12]; Log KD α1B, ^3H‐prazosin whole cell binding, given as log KD (negative), mean ± SEM): 1.82 µM; Kd ([12]; Log KD, ^3H‐prazosin binding, whole‐cell binding (from Table 1), given as log KD (negative numbers)): 1.82 µM; Affinity selectivity ratio α1B vs α1D ([12]; left sub‐column: higher affinity for α1B than α1D): 1.1 fold; cAMP (in presence of forskolin) Log EC50 [13]: No response
2 | 1.51 µM | 16.8 ± 2.0% | 0.145 µM | 72.8 ± 7.0% | 3.12 | 0.0776 µM | 58.1 ± 2.1% | 2.47 ± 0.09 fold | 0.661 µM | 0.0138 µM | >4.86 | 61.1 ± 2.1% | 0.302 µM | 78.8 ± 6.1% | 1.42 | 1.35 µM | 13.7 ± 1.8% | 35.5 µM | 35.5 µM | 1.18 ± 0.04 | CCNCC(O)c1cccc(O)c1 (stereo not shown) [Etilefrine] | cAMP accumulation % forskolin at 100 µM [7]: 73.4 ± 7.1%; Affinity selectivity ratio α1A vs α1D ([9]; higher affinity for α1D than α1A): 2.9 fold; Affinity selectivity ratio α1B vs α1D [9]: >28.1 fold; ERK1/2-phosphorylation % PDBu [10]: No response; ERK1/2-phosphorylation Log EC50 [10]: No response; cAMP accumulation (in presence of forskolin) Log EC50 [11]: No response; IC50 [12]: > 1000 µM; EC50 [13]: 0.759 µM
3 | 8.32 µM | 14.2 ± 3.9% | 0.0275 µM | 81.4 ± 4.5% | 3.43 | 0.00871 µM | 55.9 ± 2.3% | 2.42 ± 0.05 fold | 6.92 µM | 0.229 µM | >3.64 | 59.1 ± 3.2% | 2.82 µM | 83.8 ± 5.7% | 1.56 | 4.17 µM | 22.6 ± 4.7% | 151 µM | 151 µM | 1.21 ± 0.04 | COc1ccc(OC)c(C(O)C(C)N)c1 (stereo not shown) [Methoxamine] | cAMP accumulation % forskolin at 100 µM [7]: 24.2 ± 4.6%; Affinity selectivity ratio α1B vs α1D [9]: >6.6 fold; ERK1/2-phosphorylation % PDBu [10]: No response; ERK1/2-phosphorylation Log EC50 [10]: No response; cAMP accumulation (in presence of forskolin) Log EC50 [11]: No response; IC50 [12]: > 1000 µM; EC50 [13]: 10.5 µM

Row | SMILES | EC50 [1] | ERK1/2‐phosphorylation % PDBu [1] | EC50 [2] | ERK1/2‐phosphorylation % PDBu [2] | Log efficacy ratio KD /EC50 [3] | EC50 [3] | Intracellular calcium release % ionomycin [3] | cAMP accumulation (in presence of forskolin) Fold increase [4] | EC50 [4] | EC50 [5] | Log efficacy ratio KD /EC50 [5] | Intracellular calcium release % ionomycin [5] | EC50 [6] | ERK1/2‐phosphorylation % PDBu [6] | Log efficacy ratio KD /EC50 [8] | EC50 ([8]; log values given negative) | Intracellular calcium release % ionomycin [8] | Kd [9, 14] | Kd [9, 15] | cAMP (in presence of forskolin) Fold increase [13] | also measured
4 | c1ccc(C2CC2)c(OCC2=NCCN2)c1 [Cirazoline] | 3.8 µM | 36.5 ± 3.2% | 0.000955 µM | 80.8 ± 3.6% | 3.01 | 0.000661 µM | 58.2 ± 2.0% | 2.09 ± 0.13 fold | 0.0398 µM | 0.00891 µM | 2.95 | 53.3 ± 1.5% | 0.12 µM | 82.5 ± 8.6% | 1.37 |  | 17.3 ± 3.8% |  |  | No response | cAMP accumulation % forskolin [7]: 11.4 ± 2.4%; EC50 [7]: 0.12 µM; Intracellular calcium release Log EC50 ([8]; log values given negative): −6.90 ± 0.09; Kd ([9]; given as log KD (negative), mean ± SEM, 'early plateau' = specific binding not fully inhibited): 2.95 µM; Affinity selectivity ratio α1B vs α1D [9]: 2.7 fold; Emax at 100 µM [10]: 33.4 ± 7.6%; cAMP accumulation (in presence of forskolin) % forskolin-stim cAMP at 100μM ([11]; response at 100μM only, EC50 not obtainable, % of forskolin-stimulated cAMP): 82.4 ± 2.8%; Kd ([12]; given as log KD (negative), mean ± SEM): 7.94 µM; cAMP (in presence of forskolin) Log EC50 [13]: No response
